Read-outs that look alike come from different tables or passages of the source.
Columns and labels:
Assay type in all cases: cell-based, rat
RBL-2H3 mast cells [1] = test: Fluorescence microscopy of actin cytoskeleton (rhodamine-phalloidin); settings: DNP-BSA cross-linking
Description: FIGS. 15A-B show correlation between cell-electrode impedance response of RBL-2H3 mast cells and cell morphological dynamics and mediator release. (A) RBL-2H3 mast cells were sensitized with 100 ng/mL IgE or treated with a control IgG antibody and subsequently activated with DNP-BSA. The cells were fixed with paraformaldehyde at the indicated time points, permeablized and stained with rhodamine-phalloidin. The cells were visualized and photographed with a Nikon E-400 immunoflourescence microscope equipped with a CCD camera. (B) RBL-2H3 cells were sensitized with IgE, activated by the addition of DNP-BSA.
RBL-2H3 cells were seeded in 16 well Lab-Tec chamber slides and allowed to attach and spread for 6 hours. The cells were stimulated with anti-DNP IgE at a final concentration of 100 ng/mL or a non-specific mouse IgG at 100 ng/mL and then 16 hours later, the media was aspirated, replaced with fresh media and treated with 100 ng/mL DNP-BSA for the indicated time and then fixed with 4 % parafarmaldehyde. The cells were washed 3X with PBS, permeablized in PBS containing 0.2% TX-100 and blocked in PBS containing 0.5 % BSA. The cells were then stained with rhodamine-phalloidin for 30 minutes, washed 3X with PBS and visualized and imaged using the tritc filter on a Nikon E400 epi-fluorescence microscope and Nikon ACT software. […]

RBL-2H3 mast cells [2] = test: Impedance monitoring of RBL-2H3 mast cell response to IgE and antigen; settings: anti-DNP IgE sensitized, 100 ng/mL DNP-BSA (FIG. 14)
Description: FIG. 13 is a plot of cell index recording indicating mast cell responses to IgE in the presence or absence of antigen. 20,000 RBL-2H3 mast cells were seeded in each well of a 16× device. Cells were allowed to adhere and grow for 22 hours while being recorded. At 22 hours the cells were treated with either 1 microgram/mL non-specific mouse IgG or 1 microgram/mL anti-DNP mouse IgE. The electronic impedance response of the cells were continued to be recorded for an additional 20 hours after which the media in the wells were aspirated and replaced with fresh serum free media. The cells were allowed to recover for 30 minutes and then treated with the 1 microgram/mL of the antigen, DNP-BSA. The electronic impedance response of the cells was measured for an additional 3 hours.
Approximately 14 hours after seeding the cells were incubated with 100 ng/mL anti-DNP IgE followed by application of 100 ng/mL DNP-BSA 24 hours later. Impedance measurements (indicated as Cell Index) were performed at 5 minute intervals post DNP-BSA application.
FIGS. 16A-B show IgE alone-mediated increase in mast cell-electrode impedance response and its effect on antigen-mediated activation step. (A) RBL-2H3 cells seeded on microelectronic sensor arrays were left untreated or treated with indicated concentration of anti-DNP IgE. The impedance value indicated as Cell Index was continuously monitored and recorded using a cell-substrate impedance monitoring system. […] The impedance value indicated as Cell Index was continuously monitored using the system. […]
RBL-2H3 cells were seeded in the 16X device chamber (depicted in FIG. 2) at 20,000 cells/well and the attachment and growth of the cells in the 37° C. tissue culture incubator were monitored in real-time using the cell-substrate monitoring system. […]
20,000 RBL-2H3 cells were seeded per well of a 16X microtiter device and monitored by the impedance measuring system. […] The cell-electrode impedance was continuously measured and the corresponding, time dependent Cell-Index values were derived and recorded. […]

[3] = test system: IgE-mediated RBL-2H3 mast cell activation; test: Cell-substrate impedance assay: pharmacological inhibition of antigen-mediated mast cell activation; settings: at peak response
Description: RBL-2H3 mast cells were sensitized with 100 ng/mL anti-DNP-IgE and then incubated with the indicated concentrations of the Bisindolylmaleimide 1 hour prior to addition of 100 ng/mL DNP-BSA. The impedance value indicated as Cell Index was monitored using a cell-substrate impedance monitoring system of the present invention.
The real-time cell-substrate impedance monitoring system comprises three components, an impedance analyzer, a device station, and one or more 16X microtiter devices. Microelectrode sensor arrays were fabricated on glass slides using lithographical microfabrication methods and the electrode-containing slides were assembled to plastic trays to form 16 electrode-containing wells. The device station of the system receives the 16X microtiter devices and is capable of electronically switching any one of the wells to the sensor (impedance) analyzer for impedance measurement. In operation, the devices with cells cultured in the wells are placed into a device station that is located inside an incubator. Electrical cables connect the device station to the sensor (impedance) analyzer. Under the impedance monitoring system’s software control, the impedance analyzer can automatically select wells to be measured and continuously conduct impedance measurements. The impedance data from the analyzer is transferred to a computer, analyzed and processed by integrated software.
To quantify cell status based on the measured cell-electrode impedance, a parameter termed Cell Index is derived, according to
where Rb (f) and Rcell (f) are the frequency dependent electrode resistances (a component of impedance) without cells or with cell present, respectively. N is the number of the frequency points at which the impedance is measured. Thus, Cell Index is a quantitative measure of the status of the cells in an electrode-containing well. Under the same physiological conditions, more cells attached on to the electrodes leads to larger Rcell (f) value, leading to a larger value for Cell Index. […]
20,000 RBL-2H3 cells were seeded per well of a 16X microtiter device and monitored by the impedance measuring system. […] The cell-electrode impedance was continuously measured and the corresponding, time dependent Cell-Index values were derived and recorded.
RBL-2H3 cells were seeded in a 16X microtiter plate device and pre-stimulated with anti-DNP-IgE were incubated for 1 hour with the indicated doses of the PKC-specific inhibitor Bisindolylmaleimide and subsequently treated with 100 ng/mL DNP-BSA (FIG. 17). The dose-dependent inhibition of RBL-2H3 mast cell activation by Bisindolylmaleimide can be monitored on the cell-substrate monitoring system in real-time. […]

[4] = Rattus norvegicus, RBL-2H3, mast cell activation by impedance, Bisindolylmaleimide N=3, SU6656 N=5, U73122 N=5, Piceatannol N=1, read-out: IC50±SD

DNP-BSA: multi-valent antigen DNP-BSA
time at which extensive ruffling is apparent (RBL-2H3 mast cells [1]; printed as post IgE stimulation): 2.5 min | time of peak cytoskeletal reorganization (RBL-2H3 mast cells [1]; printed as post-IgE stimulation): 30 to 45 min | time of return to baseline (RBL-2H3 mast cells [2]): approximately 2.5 hours | time to detectable impedance increase (RBL-2H3 mast cells [2]): ≤ 5 min | time to maximal impedance increase (RBL-2H3 mast cells [2]): ≤ 30 min

CN(C)S(=O)(=O)c1ccc2c(c1)/C(=C/c1cc3c([nH]1)CCCC3)C(=O)N2 [SU6656]
IC50 [3, 4]: 5.8 ± 3.5 µM

COc1ccc2c(c1)CC[C@@H]1[C@@H]2CC[C@]2(C)[C@@H](NCCCCCCN3C(=O)C=CC3=O)CC[C@@H]12 [U73122]
IC50 ([3]; antigen-mediated RBL-2H3 activation, read-out: IC-50 value): ~1 µM | IC50 ([3]; mast cell activation by impedance, Bisindolylmaleimide N=3, SU6656 N=5, U73122 N=5, Piceatannol N=1, read-out: IC50±SD): 0.93 ± 0.6 µM

Oc1cc(O)cc(/C=C/c2ccc(O)c(O)c2)c1 [Piceatannol]
IC50 [3, 4]: 1 µM

From patent publication US20230145666A1, “REAL TIME ELECTRONIC CELL SENSING SYSTEMS AND APPLICATIONS FOR CELL-BASED ASSAYS” (Agilent Technologies, Inc., priority 2002, published 2023)
